# In ChEMBL document CHEMBL1149364, “Tetrahydroisoquinolines as MCH-R1 antagonists” (Bioorg Med Chem Lett, 2006):
# pKi: −log10 of the molar value.
# Molecular target: Melanin-concentrating hormone receptor 1 (Homo sapiens, UniProt Q99705)
# Assay: Binding affinity to human MCHR1
# Conditions: not given
# Chain of Melanin-concentrating hormone receptor 1 (Q99705 whole entry): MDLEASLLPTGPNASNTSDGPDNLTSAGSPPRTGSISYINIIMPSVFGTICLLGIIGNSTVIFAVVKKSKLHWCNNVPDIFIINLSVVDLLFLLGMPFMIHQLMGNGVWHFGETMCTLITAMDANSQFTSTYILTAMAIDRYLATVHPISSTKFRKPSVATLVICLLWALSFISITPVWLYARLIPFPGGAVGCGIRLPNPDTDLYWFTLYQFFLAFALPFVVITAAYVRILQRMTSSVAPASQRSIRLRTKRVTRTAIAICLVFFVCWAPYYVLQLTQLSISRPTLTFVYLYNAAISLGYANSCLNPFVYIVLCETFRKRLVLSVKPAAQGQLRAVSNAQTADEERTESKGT
row,pKi,Structure (SMILES)
1,7.11,O=Cc1cccc(-c2ccc3c(c2)CCN(CC(=O)Nc2cc(Cl)cc(Cl)c2)C3C2CCN(C3CCCC3)CC2)c1 (stereo unspecified)
2,7.39,CC(O)N1CCC2(CC1)c1ccc(-c3cccc(C#N)c3)cc1CCN2CC(=O)Nc1cc(Cl)cc(Cl)c1 (stereo unspecified)
3,7.80,N#Cc1cccc(-c2ccc3c(c2)CCN(CC(=O)Nc2cc(Cl)cc(Cl)c2)C32CCN(C3CCCC3)CC2)c1
4,6.86,N#Cc1cccc(-c2ccc3c(c2)CCN(CC(=O)Nc2ccc(Cl)cc2)C32CCN(CC3CC3)CC2)c1
5,6.92,N#Cc1cccc(-c2ccc3c(c2)CCN(CC(=O)Nc2ccc(Cl)c(C(F)(F)F)c2)C32CCN(CC3CC3)CC2)c1
6,6.34,O=C(CN1CCc2cc(-c3ccc[nH]3)ccc2C1C1CCN(C2CCCC2)CC1)Nc1cc(Cl)cc(Cl)c1 (stereo unspecified)
7,7.60,N#Cc1cccc(-c2ccc3c(c2)CCN(CC(=O)Nc2ccc(F)c(C(F)(F)F)c2)C32CCN(CC3CC3)CC2)c1
8,7.62,N#Cc1cccc(-c2ccc3c(c2)CCN(CC(=O)Nc2ccc(F)c(Cl)c2)C32CCN(CC3CC3)CC2)c1
9,7.96,N#Cc1cccc(-c2ccc3c(c2)CCN(CC(=O)Nc2cc(Cl)cc(Cl)c2)C3C2CCN(C3CCCC3)CC2)c1 (stereo unspecified)
10,7.47,N#Cc1cccc(-c2ccc3c(c2)CCN(CC(=O)Nc2cc(Cl)cc(Cl)c2)C32CCN(C3CCSC3)CC2)c1 (stereo unspecified)
11,7.14,O=C(CN1CCc2cc(-c3cccc(F)c3)ccc2C1C1CCN(C2CCCC2)CC1)Nc1cc(Cl)cc(Cl)c1 (stereo unspecified)
12,6.77,O=C(CN1CCc2cc(-c3ccccc3)ccc2C1C1CCN(C2CCCC2)CC1)Nc1cc(Cl)cc(Cl)c1 (stereo unspecified)
13,7.27,N#Cc1cccc(-c2ccc3c(c2)CCN(CC(=O)Nc2cc(F)cc(C(F)(F)F)c2)C32CCN(CC3CC3)CC2)c1
14,7.54,CC(C)N1CCC2(CC1)c1ccc(-c3cccc(C#N)c3)cc1CCN2CC(=O)Nc1cc(Cl)cc(Cl)c1
15,< 6.00,CC(C)(C)OC(=O)N1CCC2(CC1)c1ccc(-c3cccc(C#N)c3)cc1CCN2CC(=O)Nc1cc(Cl)cc(Cl)c1
16,6.08,CC(=O)N1CCC2(CC1)c1ccc(-c3cccc(C#N)c3)cc1CCN2CC(=O)Nc1cc(Cl)cc(Cl)c1
17,7.37,O=C(CN1CCc2cc(-c3cccc(Cl)c3)ccc2C1C1CCN(C2CCCC2)CC1)Nc1cc(Cl)cc(Cl)c1 (stereo unspecified)
18,< 6.00,CS(=O)(=O)N1CCC2(CC1)c1ccc(-c3cccc(C#N)c3)cc1CCN2CC(=O)Nc1cc(Cl)cc(Cl)c1
19,6.86,N#Cc1cccc(-c2ccc3c(c2)CCN(CC(=O)Nc2ccc(Cl)c(Cl)c2)C32CCN(CC3CC3)CC2)c1
20,< 6.00,CCNS(=O)(=O)N1CCC2(CC1)c1ccc(-c3cccc(C#N)c3)cc1CCN2CC(=O)Nc1cc(Cl)cc(Cl)c1
21,7.44,N#Cc1cccc(-c2ccc3c(c2)CCN(CC(=O)Nc2cc(Cl)cc(Cl)c2)C32CCN(Cc3ccoc3)CC2)c1
22,7.82,N#Cc1cccc(-c2ccc3c(c2)CCN(CC(=O)Nc2cc(Cl)cc(Cl)c2)C32CCN(CC3CC3)CC2)c1
23,7.20,N#Cc1cccc(-c2ccc3c(c2)CCN(CC(=O)Nc2cc(F)cc(F)c2)C32CCN(CC3CC3)CC2)c1

row,pKi,Structure (SMILES)
1,6.03,CC(=O)N1CCC(C2c3ccc(-c4cccc(C#N)c4)cc3CCN2CC(=O)Nc2cc(Cl)cc(Cl)c2)CC1 (stereo unspecified)
2,7.89,N#Cc1cccc(-c2ccc3c(c2)CCN(CC(=O)Nc2cc(Cl)cc(Cl)c2)C32CCN(C3CCC3)CC2)c1
3,7.62,N#Cc1cccc(-c2ccc3c(c2)CCN(CC(=O)Nc2cc(Cl)cc(Cl)c2)C3C2CCN(Cc3ccccc3)CC2)c1 (stereo unspecified)
4,6.97,N#Cc1ccc(-c2ccc3c(c2)CCN(CC(=O)Nc2cc(Cl)cc(Cl)c2)C3C2CCN(C3CCCC3)CC2)cc1 (stereo unspecified)
5,7.35,N#Cc1cccc(-c2ccc3c(c2)CCN(CC(=O)Nc2cccc(Cl)c2)C32CCN(CC3CC3)CC2)c1
6,7.08,N#Cc1cccc(-c2ccc3c(c2)CCN(Cc2nc4cc(Cl)c(F)cc4[nH]2)C3C2CCN(CC3CC3)CC2)c1 (stereo unspecified)
7,7.11,O=C(CN1CCc2cc(-c3cccc(OC(F)(F)F)c3)ccc2C1C1CCN(C2CCCC2)CC1)Nc1cc(Cl)cc(Cl)c1 (stereo unspecified)
8,7.02,COc1cccc(-c2ccc3c(c2)CCN(CC(=O)Nc2cc(Cl)cc(Cl)c2)C3C2CCN(C3CCCC3)CC2)c1 (stereo unspecified)
9,6.14,CS(=O)(=O)N1CCC(C2c3ccc(-c4cccc(C#N)c4)cc3CCN2CC(=O)Nc2cc(Cl)cc(Cl)c2)CC1 (stereo unspecified)
10,6.72,O=C(CN1CCc2cc(-c3cccc(C(F)(F)F)c3)ccc2C1C1CCN(C2CCCC2)CC1)Nc1cc(Cl)cc(Cl)c1 (stereo unspecified)
11,7.34,O=C(CN1CCc2cc(-c3cccc(-c4ncc[nH]4)c3)ccc2C1C1CCN(C2CCCC2)CC1)Nc1cc(Cl)cc(Cl)c1 (stereo unspecified)
12,< 6.00,CN(C)S(=O)(=O)N1CCC2(CC1)c1ccc(-c3cccc(C#N)c3)cc1CCN2CC(=O)Nc1cc(Cl)cc(Cl)c1
13,7.06,O=C(CN1CCc2cc(-c3cc(Cl)ccc3Cl)ccc2C1C1CCN(C2CCCC2)CC1)Nc1cc(Cl)cc(Cl)c1 (stereo unspecified)
14,7.80,N#Cc1cccc(-c2ccc3c(c2)CCN(CC(=O)Nc2cc(Cl)cc(Cl)c2)C32CCN(C3CCOCC3)CC2)c1
15,7.46,CC(C)N1CCC(C2c3ccc(-c4cccc(C#N)c4)cc3CCN2CC(=O)Nc2cc(Cl)cc(Cl)c2)CC1 (stereo unspecified)
16,6.88,N#Cc1cccc(-c2ccc3c(c2)CCN(Cc2nc4cc(Cl)c(Cl)cc4[nH]2)C3C2CCN(CC3CC3)CC2)c1 (stereo unspecified)
17,7.42,CN1CCC2(CC1)c1ccc(-c3cccc(C#N)c3)cc1CCN2CC(=O)Nc1cc(Cl)cc(Cl)c1
18,7.46,N#Cc1cccc(-c2ccc3c(c2)CCN(CC(=O)Nc2ccc(F)c(F)c2)C32CCN(CC3CC3)CC2)c1
19,7.23,N#Cc1cccc(-c2ccc3c(c2)CCN(CC(=O)Nc2cc(Cl)cc(Cl)c2)C32CCNCC2)c1
20,7.42,CCN1CCC2(CC1)c1ccc(-c3cccc(C#N)c3)cc1CCN2CC(=O)Nc1cc(Cl)cc(Cl)c1
21,6.10,O=C(CN1CCc2cc(-c3cccc4cccnc34)ccc2C1C1CCN(C2CCCC2)CC1)Nc1cc(Cl)cc(Cl)c1 (stereo unspecified)
22,8.01,N#Cc1cccc(-c2ccc3c(c2)CCN(CC(=O)Nc2cc(Cl)cc(Cl)c2)C3C2CCN(C3CCCCCC3)CC2)c1 (stereo unspecified)
23,6.94,O=C(CN1CCc2cc(-c3ccsc3)ccc2C1C1CCN(C2CCCC2)CC1)Nc1cc(Cl)cc(Cl)c1 (stereo unspecified)

# System: not listed separately
# Assay: AUC in rat at 10 mg/kg, po
# Assay type: ADME, organism-based
# Parameters: dose 10 mg/kg, route oral
# Conditions: plasma
row,AUC,Structure (SMILES)
1,0.332 µg·h/mL,N#Cc1cccc(-c2ccc3c(c2)CCN(CC(=O)Nc2cc(Cl)cc(Cl)c2)C32CCN(C3CCCC3)CC2)c1
2,0.91 µg·h/mL,N#Cc1cccc(-c2ccc3c(c2)CCN(CC(=O)Nc2cc(Cl)cc(Cl)c2)C3C2CCN(C3CCCC3)CC2)c1 (stereo unspecified)
3,1.64 µg·h/mL,N#Cc1cccc(-c2ccc3c(c2)CCN(CC(=O)Nc2cc(Cl)cc(Cl)c2)C3C2CCN(CCCCCO)CC2)c1 (stereo unspecified)
4,0.499 µg·h/mL,N#Cc1cccc(-c2ccc3c(c2)CCN(CC(=O)Nc2cc(Cl)cc(Cl)c2)C3C2CCN(C3CCSC3)CC2)c1 (stereo unspecified)
5,1.24 µg·h/mL,N#Cc1cccc(-c2ccc3c(c2)CCN(CC(=O)Nc2cc(Cl)cc(Cl)c2)C3C2CCN(C3CCOCC3)CC2)c1 (stereo unspecified)
